Here are results for 31 compounds from patent US20250388604A1, “Compounds and Their Use as PDE4 Activators” (Mironid Limited, priority 2022, published 2025).

The test system of one assay is m-IMCD3 cells. The assay can be described thus: Inhibition of PGE2-stimulated in vitro cyst formation in m-IMCD3 cells. It counts as cell-based, mouse. As to conditions: 3 μM; mean cyst area, 100% for (DMSO + PGE2) and 0% for DMSO control; 6 days of culture. In outline: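 Mean cyst area after 6 days, expressed relative to DMSO+PGE2 (100%) and DMSO alone (0%), from z-stack images. Mouse m-IMCD3 spheroids grew in collagen I/Matrigel gels and received PGE2 (100 nM final) with test compound (0.1% DMSO) starting 18–24 h post-plating, media refreshed at day 2 or 3.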
Regarding `CC(C(=O)N1CCc2nc(N3C4CCC3CNC4)sc2C1)C(C)(C)C` (single isomer, unassigned) [Example 158, 1-(2-(3,8-diazabicyclo[3.2.1]octan-8-yl)-6,7-dihydrothiazolo[5,4-c]pyridin-5(4H)-yl)-2,3,3-trimethylbutan-1-one], the “% Cyst area after incubation with 3 μM test compound” value is 7%.

The same assay, now with this note: Mus musculus, mIMCD3, 144 h, 3 μM; mean cyst area, 100% for (DMSO + PGE2) and 0% for DMSO control; 6 days of culture; read-out: % Cyst area after incubation with 3 μM test compound.
Regarding `O=C(c1ccccc1C(F)F)N1CCc2nc(N3C4CCC3CNC4)sc2C1` [Example 218, (2-(3,8-diazabicyclo[3.2.1]octan-8-yl)-6,7-dihydrothiazolo[5,4-c]pyridin-5(4H)-yl)(2-(difluoromethyl)phenyl)methanone], the activity at 3 µM is 11%.
Still for that read-out and setting: the result for `O=C(c1cccc(C(F)F)c1)N1CCc2nc(N3C4CCC3CNC4)sc2C1` [Example 199, (2-(3,8-diazabicyclo[3.2.1]octan-8-yl)-6,7-dihydrothiazolo[5,4-c]pyridin-5(4H)-yl)(3-(difluoromethyl)phenyl)methanone] reads 3%; that for `O=C(c1ccccc1Cl)N1CCc2nc(N3C4CCC3CNC4)sc2C1` [Example 210, (2-(3,8-diazabicyclo[3.2.1]octan-8-yl)-6,7-dihydrothiazolo[5,4-c]pyridin-5(4H)-yl)(2-chlorophenyl)methanone], 11%; that for `O=C(CC1CCCC1)N1CCc2nc(N3CCN4CCC[C@@H]4C3)sc2C1` [Example 272, (R)-2-cyclopentyl-1-(2-(hexahydropyrrolo[1,2-a]pyrazin-2(1H)-yl)-6,7-dihydrothiazolo[5,4-c]pyridin-5(4H)-yl)ethan-1-one], 16%.
On the same count and under the same terms, then `COC(C(=O)N1CCc2nc(N3C4CCC3CNC4)sc2C1)C1(C)CCCC1` (stereo not shown) [Example 249, 1-(2-(3,8-diazabicyclo[3.2.1]octan-8-yl)-6,7-dihydrothiazolo[5,4-c]pyridin-5(4H)-yl)-2-methoxy-2-(1-methylcyclopentyl)ethan-1-one], with -5%; and `CC(O)(C(=O)N1CCc2nc(N3C4CCC3CNC4)sc2C1)C1CCCC1` (single isomer, unassigned) [Example 254, 1-(2-(3,8-diazabicyclo[3.2.1]octan-8-yl)-6,7-dihydrothiazolo[5,4-c]pyridin-5(4H)-yl)-2-cyclopentyl-2-hydroxypropan-1-one], with -5%.
Still for that read-out and setting: the result for `O=C(c1cccc(OC(F)(F)F)c1)N1CCc2nc(N3C4CCC3CNC4)sc2C1` [Example 205, (2-(3,8-diazabicyclo[3.2.1]octan-8-yl)-6,7-dihydrothiazolo[5,4-c]pyridin-5(4H)-yl)(3-(trifluoromethoxy)phenyl)methanone] reads 0%; that for `O=C(CC1CCCC1)N1CCc2nc(N3CCNC[C@@H]3CO)sc2C1` [Example 275, (R)-2-cyclopentyl-1-(2-(2-(hydroxymethyl)piperazin-1-yl)-6,7-dihydrothiazolo[5,4-c]pyridin-5(4H)-yl)ethan-1-one], 19%.
For the compound `O=C(c1ccc(OC(F)F)cc1)N1CCc2nc(N3C4CCC3CNC4)sc2C1` [Example 204, (2-(3,8-diazabicyclo[3.2.1]octan-8-yl)-6,7-dihydrothiazolo[5,4-c]pyridin-5(4H)-yl)(4-(difluoromethoxy)phenyl)methanone], the activity at 3 µM amounted to 4%.
The same measure, in the same setting: the result for `O=C(N1CCc2nc(N3C4CCC3CNC4)sc2C1)C(F)(F)c1ccnc(F)c1` [Example 251, 1-(2-(3,8-diazabicyclo[3.2.1]octan-8-yl)-6,7-dihydrothiazolo[5,4-c]pyridin-5(4H)-yl)-2,2-difluoro-2-(2-fluoropyridin-4-yl)ethan-1-one] reads -6%; that for `O=C(c1ccccc1)N1CCc2nc(N3C4CCC3CNC4)sc2C1` [Example 193, (2-(3,8-diazabicyclo[3.2.1]octan-8-yl)-6,7-dihydrothiazolo[5,4-c]pyridin-5(4H)-yl)(phenyl)methanone], -1%.
For `O=C(COc1ccccc1OC(F)(F)F)N1CCc2nc(N3C4CCC3CNC4)sc2C1` [Example 164, 1-(2-(3,8-diazabicyclo[3.2.1]octan-8-yl)-6,7-dihydrothiazolo[5,4-c]pyridin-5(4H)-yl)-2-(2-(trifluoromethoxy)phenoxy)ethan-1-one], the activity at 3 µM is -7%.
On the same count and under the same terms, then `Cn1c(C(=O)N2CCc3nc(N4C5CCC4CNC5)sc3C2)cc2ccccc21` [Example 189, (2-(3,8-diazabicyclo[3.2.1]octan-8-yl)-6,7-dihydrothiazolo[5,4-c]pyridin-5(4H)-yl)(1-methyl-1H-indol-2-yl)methanone], with -1%.
Turning to `O=C(CC1CCCC1)N1Cc2sc(N3C4CCC3CNC4)nc2C(F)(F)C1` [Example 270, 1-(2-(3,8-diazabicyclo[3.2.1]octan-8-yl)-7,7-difluoro-6,7-dihydrothiazolo[5,4-c]pyridin-5(4H)-yl)-2-cyclopentylethan-1-one], the activity at 3 µM was 2%.
On the same count and under the same terms, then `O=C(CC1CCCC1)N1CCc2nc(N3CC4CCC3CN4)sc2C1` (stereo not shown) [Example 278, 1-(2-(2,5-diazabicyclo[2.2.2]octan-2-yl)-6,7-dihydrothiazolo[5,4-c]pyridin-5(4H)-yl)-2-cyclopentylethan-1-one], with 2%.
Same read-out and setting: the result for `O=C(c1cccnc1Cl)N1CCc2nc(N3C4CCC3CNC4)sc2C1` [Example 224, (2-(3,8-diazabicyclo[3.2.1]octan-8-yl)-6,7-dihydrothiazolo[5,4-c]pyridin-5(4H)-yl)(2-chloropyridin-3-yl)methanone] reads 22%; that for `O=C(c1cccc(OC(F)F)c1)N1CCc2nc(N3C4CCC3CNC4)sc2C1` [Example 206, (2-(3,8-diazabicyclo[3.2.1]octan-8-yl)-6,7-dihydrothiazolo[5,4-c]pyridin-5(4H)-yl)(3-(difluoromethoxy)phenyl)methanone], 6%.

The same assay, now with this note: Mus musculus, mIMCD3, 144 h, 10 μM; mean cyst area, 100% for (DMSO + PGE2) and 0% for DMSO control; 6 days of culture; read-out: % Cyst area after incubation with 10 μM test compound.
Turning to `O=C(NC1CCCCC1)N1CCc2nc(N3C4CCC3CNC4)sc2C1` [Example 52], the activity at 10 µM is -6%.
Same read-out and setting: then `CC1(C)CC(CC(=O)N2CCc3nc(N4C5CCC4CNC5)sc3C2)C1` [Example 119, 1-(2-(3,8-diazabicyclo[3.2.1]octan-8-yl)-6,7-dihydrothiazolo[5,4-c]pyridin-5(4H)-yl)-2-(3,3-dimethylcyclobutyl)ethan-1-one], with -10%; and `O=C(COC1CCCC1)N1CCc2nc(N3C4CCC3CNC4)sc2C1` [Example 149, 1-(2-(3,8-diazabicyclo[3.2.1]octan-8-yl)-6,7-dihydrothiazolo[5,4-c]pyridin-5(4H)-yl)-2-(cyclopentyloxy)ethan-1-one], with -2%; and `O=C(N1CCc2nc(N3C4CCC3CNC4)sc2C1)C1(c2ccccc2)CC1` [Example 33, (2-(3,8-diazabicyclo[3.2.1]octan-8-yl)-6,7-dihydrothiazolo[5,4-c]pyridin-5(4H)-yl)(1-phenylcyclopropyl)methanone], with 8%.
Still for that read-out and setting: then `Cc1cc(CC(=O)N2CCc3nc(N4C5CCC4CNC5)sc3C2)cc(C)n1` [Example 153, 1-(2-(3,8-diazabicyclo[3.2.1]octan-8-yl)-6,7-dihydrothiazolo[5,4-c]pyridin-5(4H)-yl)-2-(2,6-dimethylpyridin-4-yl)ethan-1-one], with 31%; and `O=C(CCc1ccc(F)nc1)N1CCc2nc(N3C4CCC3CNC4)sc2C1` [Example 142, 1-(2-(3,8-diazabicyclo[3.2.1]octan-8-yl)-6,7-dihydrothiazolo[5,4-c]pyridin-5(4H)-yl)-3-(6-fluoropyridin-3-yl)propan-1-one], with -4%; and `CC1(C)CCN(C(=O)N2CCc3nc(N4C5CCC4CNC5)sc3C2)C1` [Example 121, (2-(3,8-diazabicyclo[3.2.1]octan-8-yl)-6,7-dihydrothiazolo[5,4-c]pyridin-5(4H)-yl)(3,3-dimethylpyrrolidin-1-yl)methanone], with 0%.
On to `O=C(NC1CCC(F)(F)CC1)N1CCn2nc(N3C4CCC3CNC4)cc2C1` [Example 70, 2-(3,8-diazabicyclo[3.2.1]octan-8-yl)-N-(4,4-difluorocyclohexyl)-6,7-dihydropyrazolo[1,5-a]pyrazine-5(4H)-carboxamide], for which the activity at 10 µM was determined as 7%.
On the same count and under the same terms, the result for `CC(C)NC(=O)N1CCc2nc(N3C4CCC3CNC4)sc2C1` [Example 51, 2-(3,8-diazabicyclo[3.2.1]octan-8-yl)-N-isopropyl-6,7-dihydrothiazolo[5,4-c]pyridine-5(4H)-carboxamide] reads 9%; that for `O=C(Cc1ccc(F)cc1F)N1CCc2nc(N3C4CCC3CNC4)sc2C1` [Example 144, 1-(2-(3,8-diazabicyclo[3.2.1]octan-8-yl)-6,7-dihydrothiazolo[5,4-c]pyridin-5(4H)-yl)-2-(2,4-difluorophenyl)ethan-1-one], 13%.
Same read-out and setting: then `O=C(CC12CC(C1)C2)N1CCc2nc(N3C4CCC3CNC4)sc2C1` [Example 12, 1-(2-(3,8-diazabicyclo[3.2.1]octan-8-yl)-6,7-dihydrothiazolo[5,4-c]pyridin-5(4H)-yl)-2-(bicyclo[1.1.1]pentan-1-yl)ethan-1-one], with -2%.
Still for that read-out and setting: the result for `CC(C)[C@@H](C)C(=O)N1CCc2nc(N3C4CCC3CNC4)sc2C1` [Example 19, (2R)-1-(2-(3,8-diazabicyclo[3.2.1]octan-8-yl)-6,7-dihydrothiazolo[5,4-c]pyridin-5(4H)-yl)-2,3-dimethylbutan-1-one] reads -2%.
Take `CN1CC2CCC(C1)N2c1nc2c(s1)CN(C(=O)CC1CCC(F)(F)CC1)CC2(C)C` [Example 103, 2-(4,4-difluorocyclohexyl)-1-(7,7-dimethyl-2-(3-methyl-3,8-diazabicyclo[3.2.1]octan-8-yl)-6,7-dihydrothiazolo[5,4-c]pyridin-5(4H)-yl)ethan-1-one]: the activity at 10 µM was -1%.
